# Data as given in ChEMBL document CHEMBL3885881, “DrugMatrix”.
# Species: Rattus norvegicus
# Test: DrugMatrix - Regimen: Daily Repeat
# Format: toxicity, organism-based, Sprague-Dawley
# Design: regimen Daily Repeat, gender Male, age 6-8 weeks
# Settings: in vivo, po, 1200 mg/kg, route oral GAVAGE, dose level High, vehicle 100 % WATER; for ABSOLUTE BASOPHIL / ABSOLUTE EOSINOPHIL / ABSOLUTE LYMPHOCYTE / ABSOLUTE MONOCYTE / ABSOLUTE SEGMENTED NEUTROPHIL / BASOPHIL / EOSINOPHIL / ERYTHROCYTE COUNT / HEMATOCRIT / HEMOGLOBIN / LEUKOCYTE COUNT / LYMPHOCYTE / MEAN CORPUSCULAR HEMOGLOBIN / MEAN CORPUSCULAR HEMOGLOBIN CONCENTRATION / MEAN CORPUSCULAR VOLUME / MONOCYTE / NEUTROPHIL / NUCLEATED RED BLOOD CELLS / PLATELET COUNT: tissue Blood; for ALANINE AMINOTRANSFERASE / ALBUMIN / ALKALINE PHOSPHATASE / ASPARTATE AMINOTRANSFERASE / BLOOD UREA NITROGEN / CARBON DIOXIDE / CHLORIDE / CHOLESTEROL / CREATINE PHOSPHOKINASE / CREATININE / GLUCOSE / LACTATE DEHYDROGENASE / LIPASE / PHOSPHORUS / POTASSIUM / SODIUM / TOTAL BILIRUBIN / TOTAL PROTEIN / URIC ACID: tissue Plasma
smiles,measurement,setting,value
CCC1(C)CC(=O)NC1=O (stereo unspecified) [ETHOSUXIMIDE],ABSOLUTE BASOPHIL,"72 h, time 3 day",0 CELLS/uL
same,ABSOLUTE EOSINOPHIL,"72 h, time 3 day",0 CELLS/uL
same,ABSOLUTE LYMPHOCYTE,"72 h, time 3 day",11632.67 CELLS/uL
same,ABSOLUTE MONOCYTE,"72 h, time 3 day",44.67 CELLS/uL
same,ABSOLUTE SEGMENTED NEUTROPHIL,"72 h, time 3 day",722.67 CELLS/uL
same,BASOPHIL,"72 h, time 3 day",0%
same,EOSINOPHIL,"72 h, time 3 day",0%
same,ERYTHROCYTE COUNT,"72 h, time 3 day",5.96 x10E6/uL
same,HEMATOCRIT,"72 h, time 3 day",38.63%
same,HEMOGLOBIN,"72 h, time 3 day",15.43 G/DL
same,LEUKOCYTE COUNT,"72 h, time 3 day",12.4 x10E3/uL
same,LYMPHOCYTE,"72 h, time 3 day",94%
same,MEAN CORPUSCULAR HEMOGLOBIN,"72 h, time 3 day",26 pg
same,MEAN CORPUSCULAR HEMOGLOBIN CONCENTRATION,"72 h, time 3 day",40 G/DL
same,MEAN CORPUSCULAR VOLUME,"72 h, time 3 day",65 fL
same,MONOCYTE,"72 h, time 3 day",0.33%
same,NEUTROPHIL,"72 h, time 3 day",5.67%
same,NUCLEATED RED BLOOD CELLS,"72 h, time 3 day",0 /100WBC
same,PLATELET COUNT,"72 h, time 3 day",1151 x10E3/uL
same,ALANINE AMINOTRANSFERASE,"72 h, time 3 day",70.67 u/L
same,ALBUMIN,"72 h, time 3 day",4.4 G/DL
same,ALKALINE PHOSPHATASE,"72 h, time 3 day",269.67 u/L
same,ASPARTATE AMINOTRANSFERASE,"72 h, time 3 day",95 u/L
same,BLOOD UREA NITROGEN,"72 h, time 3 day",16.33 mg/dL
same,CARBON DIOXIDE,"72 h, time 3 day",28.67 mmol/L
same,CHLORIDE,"72 h, time 3 day",97 MEQ/L
same,CHOLESTEROL,"72 h, time 3 day",100.67 mg/dL
same,CREATINE PHOSPHOKINASE,"72 h, time 3 day",183.67 u/L
same,CREATININE,"72 h, time 3 day",0.14 mg/dL
same,GLUCOSE,"72 h, time 3 day",133 mg/dL
same,LACTATE DEHYDROGENASE,"72 h, time 3 day",123 u/L
same,LIPASE,"72 h, time 3 day",10.67 u/L
same,PHOSPHORUS,"72 h, time 3 day",12.53 mg/dL
same,POTASSIUM,"72 h, time 3 day",7.49 MEQ/L
same,SODIUM,"72 h, time 3 day",140.33 MEQ/L
same,TOTAL BILIRUBIN,"72 h, time 3 day",0.2 mg/dL
same,TOTAL PROTEIN,"72 h, time 3 day",5.97 G/DL
same,URIC ACID,"72 h, time 3 day",1.9 mg/dL
same,ABSOLUTE BASOPHIL,"120 h, time 5 day",0 CELLS/uL
same,ABSOLUTE EOSINOPHIL,"120 h, time 5 day",57.67 CELLS/uL
same,ABSOLUTE LYMPHOCYTE,"120 h, time 5 day",11720.67 CELLS/uL
same,ABSOLUTE MONOCYTE,"120 h, time 5 day",238.33 CELLS/uL
same,ABSOLUTE SEGMENTED NEUTROPHIL,"120 h, time 5 day",2116.67 CELLS/uL
same,BASOPHIL,"120 h, time 5 day",0%
same,EOSINOPHIL,"120 h, time 5 day",0.33%
same,ERYTHROCYTE COUNT,"120 h, time 5 day",6.03 x10E6/uL
same,HEMATOCRIT,"120 h, time 5 day",37.47%
same,HEMOGLOBIN,"120 h, time 5 day",14.97 G/DL
same,LEUKOCYTE COUNT,"120 h, time 5 day",14.13 x10E3/uL
same,LYMPHOCYTE,"120 h, time 5 day",83%
same,MEAN CORPUSCULAR HEMOGLOBIN,"120 h, time 5 day",24.8 pg
same,MEAN CORPUSCULAR HEMOGLOBIN CONCENTRATION,"120 h, time 5 day",39.97 G/DL
same,MEAN CORPUSCULAR VOLUME,"120 h, time 5 day",62.07 fL
same,MONOCYTE,"120 h, time 5 day",1.67%
same,NEUTROPHIL,"120 h, time 5 day",15%
same,NUCLEATED RED BLOOD CELLS,"120 h, time 5 day",0 /100WBC
same,PLATELET COUNT,"120 h, time 5 day",1343 x10E3/uL
same,ALANINE AMINOTRANSFERASE,"120 h, time 5 day",98.67 u/L
same,ALBUMIN,"120 h, time 5 day",4.7 G/DL
same,ALKALINE PHOSPHATASE,"120 h, time 5 day",209.33 u/L
same,ASPARTATE AMINOTRANSFERASE,"120 h, time 5 day",133.67 u/L
same,BLOOD UREA NITROGEN,"120 h, time 5 day",15 mg/dL
same,CARBON DIOXIDE,"120 h, time 5 day",25.67 mmol/L
same,CHLORIDE,"120 h, time 5 day",96.67 MEQ/L
same,CHOLESTEROL,"120 h, time 5 day",108 mg/dL
same,CREATINE PHOSPHOKINASE,"120 h, time 5 day",425.33 u/L
same,CREATININE,"120 h, time 5 day",0.16 mg/dL
same,GLUCOSE,"120 h, time 5 day",121 mg/dL
same,LACTATE DEHYDROGENASE,"120 h, time 5 day",480.67 u/L
same,LIPASE,"120 h, time 5 day",10.67 u/L
same,PHOSPHORUS,"120 h, time 5 day",11.4 mg/dL
same,POTASSIUM,"120 h, time 5 day",6.59 MEQ/L
same,SODIUM,"120 h, time 5 day",141.93 MEQ/L
same,TOTAL BILIRUBIN,"120 h, time 5 day",0.13 mg/dL
same,TOTAL PROTEIN,"120 h, time 5 day",6.37 G/DL
same,URIC ACID,"120 h, time 5 day",1.63 mg/dL
